The values that follow come from patent US6087119A, “Method for determining the catalytic activity of factor IXa” (Roche Diagnostics GmbH, priority 1996, dated 2000).

For this assay, the target named is rFIXa (human) (Homo sapiens, UniProt P00740). Description: Influence of alcohols and organic solvents on the activity of rFIXa, chromogenic peptide substrates. Details: coding for the FIX protease domain from amino acid position 181 to 415; Met (ATG start codon) (N); made in house. Type of assay: biochemical. The settings on record: for V/V0: MeSO2-D-HHT-Gly-Arg-pNA 1.02 mmol/l, 0.48 μmol/l rFIXa; for V/V0 / effect on the activity of rFIXa (in words): pH 7.4; for effect on the activity of rFIXa (in words): additive 0-50%, MeSO2-D-HHT-Gly-Arg-pNA. How it is done:
The reaction was started by adding FIXa.
MeSO2 -D-HHT-Gly-Arg-pNA→MeSO2 -D-HHT-Gly-Arg+pNA measurement signal: pNA
0.48 μmol/l rFIXa (human)
0-50% (alcohol or organic solvent)
The ratio V/V0 was calculated to illustrate the stimulation of the catalytic activity of rFIXa.
V0, reaction rate without additives
V, reaction rate in the presence of additives
Test Mixture Chromogenic (Concentration in the Test)

Structures are written as SMILES.

rFIXa (human), sequence (P00740 227-461 limits assumed): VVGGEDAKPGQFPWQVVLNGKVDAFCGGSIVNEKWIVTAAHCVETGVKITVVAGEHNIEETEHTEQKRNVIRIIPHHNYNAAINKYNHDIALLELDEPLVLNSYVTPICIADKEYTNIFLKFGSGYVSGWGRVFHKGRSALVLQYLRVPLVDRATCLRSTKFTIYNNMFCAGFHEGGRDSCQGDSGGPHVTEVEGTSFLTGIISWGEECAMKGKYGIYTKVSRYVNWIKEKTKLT
rFIXa (human), sequence (P00740 131-226 partner limits assumed): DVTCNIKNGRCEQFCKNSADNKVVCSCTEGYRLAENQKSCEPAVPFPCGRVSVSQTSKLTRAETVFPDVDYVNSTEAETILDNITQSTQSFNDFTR

With `CN(C)C=O` [DMF, dimethylformamide], the “effect on the activity of rFIXa (in words)” value (“effect on the activity” below) is “inactivate the enzyme”. The V/V0 (8% additive) is given as 0.649. This compound also came in with a V/V0 (16% additive) of 0.514. The same compound displayed a V/V0 (25% additive) of 0. In addition, the V/V0 (33% additive) is given as 0. In addition, the V/V0 (41% additive) amounted to 0. Where the note is “50% additive”, this compound returned a V/V0 of 0.

In the case of `C[S+](C)[O-]` [DMSO, dimethylsulfoxide], the “effect on the activity” value is given as “does not inhibit rFIXa up to 30%”. In addition, the V/V0 (8% additive) came to 1.27. This compound came in with a V/V0 (16% additive) of 1.45. The compound also returned a V/V0 (25% additive) of 1.59. The compound further came in with a V/V0 (33% additive) of 1.43. Further, the V/V0 (41% additive) amounted to 0.922. Besides, where the note is “50% additive”, the V/V0 stood at 0.157.

As for `CC(C)O` [i-Propanol], the V/V0 turned out to be 2.17 (8% additive); 2.48 (16% additive); 1.18 (25% additive); 0.346 (33% additive); 0.164 (41% additive); 0.164 (50% additive).

Consider `OCC(O)CO` [Glycerol], for which the “effect on the activity” value is recorded as “does not stimulate until higher concentrations (25-50%)”. The same compound registered a V/V0 (8% additive) of 1.12. Besides, the V/V0 (16% additive) amounted to 1.64. The same compound gave a V/V0 (25% additive) of 2.47. In addition, the V/V0 (33% additive) is 3.38. Where the note is “41% additive”, this compound displayed a V/V0 of 4.82. Further, the V/V0 (50% additive) amounted to 5.91.

For the compound `CC(C)(C)O` [t-Butanol], the V/V0 runs as follows: (8% additive) 2.05; (16% additive) 1.67; (25% additive) 0.702; (33% additive) 0.368; (41% additive) 0.263; (50% additive) 0.263.

Turning to `CO` [Methanol], the V/V0 runs as follows: (8% additive) 2.16; (16% additive) 3.46; (25% additive) 3.71; (33% additive) 2.83; (41% additive) 1.55; (50% additive) 0.588. Also, for the setting “concentration range of 15-40%”, the “stimulation of the activity of rFIXa” value is listed as 5-15 fold.

For the compound `CC#N` [Acetonitrile], the “effect on the activity” value was “inactivate the enzyme”. The same compound displayed a V/V0 (8% additive) of 0.828. For the same compound, the V/V0 (16% additive) came out at 0.314. The V/V0 (25% additive) was determined as 0. Under “33% additive”, this compound showed a V/V0 of 0. The V/V0 (41% additive) was determined as 0. The compound also came in with a V/V0 (50% additive) of 0.

Consider `CCCO` [n-Propanol], for which the V/V0 is, setting by setting: (8% additive) 3.43; (16% additive) 2.26; (25% additive) 0.339; (33% additive) 0.186; (41% additive) 0.056; (50% additive) 0.056.

For `OC[C@@H](O)[C@@H](O)CO` [m-Erythritol], the “effect on the activity” value is reported as “only has a slight effect”. For the setting “8 g/100 ml additive”, this compound returned a V/V0 of 1.16. Besides, the V/V0 (16 g/100 ml additive) worked out at 1.35. In addition, the V/V0 (25 g/100 ml additive) is listed as 1.49. For the same compound, the V/V0 (33 g/100 ml additive) is 1.56. In addition, the V/V0 (41 g/100 ml additive) was found to be 1.64. Besides, the V/V0 (50 g/100 ml additive) was 1.77.
